Patent US20250282760A1 (Merck Sharp & Dohme LLC, priority 2022, published 2025)

Molecular target: T1, human OX2R (Homo sapiens, UniProt O43614)
T1 construct: expressed in transfected cells; host or cells: Chinese hamster ovary (CHO) cells, kept under G418 selection
T1 sequence (O43614 1-444): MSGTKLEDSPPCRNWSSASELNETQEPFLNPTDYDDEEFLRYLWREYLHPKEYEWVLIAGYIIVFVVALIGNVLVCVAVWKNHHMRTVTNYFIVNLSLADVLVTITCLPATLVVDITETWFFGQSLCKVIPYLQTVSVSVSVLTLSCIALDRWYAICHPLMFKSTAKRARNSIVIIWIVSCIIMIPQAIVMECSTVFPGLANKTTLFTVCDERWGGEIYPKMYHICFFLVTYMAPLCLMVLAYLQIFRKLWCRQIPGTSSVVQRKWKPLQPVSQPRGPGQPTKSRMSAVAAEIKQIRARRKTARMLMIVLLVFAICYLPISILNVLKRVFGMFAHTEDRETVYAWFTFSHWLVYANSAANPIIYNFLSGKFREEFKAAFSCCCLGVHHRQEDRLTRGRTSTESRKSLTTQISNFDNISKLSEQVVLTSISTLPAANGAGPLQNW
Assay: IPOne (IP-1 accumulation) assay of orexin receptor agonist activity in CHO cells expressing human OX2R
Assay type: cell-based
Details: for IC50: CHO cells expressing human OX2R, IP-One assay, 2 hours incubation, four parameter logistic fit, read-out: hOX2R_IP IC50; for Emax: CHO, percent activity at maximum tested concentration, relative to reference compound at 1 uM (100% activity) for human OX2R
Excerpt: The utility of the compounds in accordance with the present invention as orexin receptor OX1R and/or OX2R agonists may be readily determined without undue experimentation by methodology well known in the art. Both the OX1R and/or OX2R G-coupled protein receptors (GPCRs) couple through the Gαq signaling pathway, which ultimately promotes calcium mobilization via inositol triphosphate (IP3) production. […] The utility of the compounds in accordance with the present invention as orexin receptor OX1R and/or OX2R agonists may be determined utilizing this assay.
In a typical experiment, the OX1 and OX2 receptor agonist activity is determined in accordance with the following general experimental method. Chinese hamster ovary (CHO) cells expressing human OX1R and/or the human OX2R were grown in Iscove's modified DMEM containing glutaMAX™, 1% G418, 100 U/mL penicillin, 100 μg/mL streptomycin and 10% heat-inactivated qualified fetal bovine serum (FBS). […] During this incubation, IP-one detection reagents were prepared (38:1:1 lysis buffer:D2:AB-cryptate reagents).
For each compound, data were fit to a four parameter logistic fit (ActivityBase software) and the EC50 was reported as the inflection point of the resulting curve. Percent effect for each test compound was determined as the percentage of sample raw value/mean max effect, where the mean max effect was derived from the mean raw value of 32 control wells per assay plate (using Orexin A (cat #003-30) at 1 μM for human OX1R and a reference compound at 1 uM with 100% activity previously established by comparison to Orexin A for human OX2R). The intrinsic orexin receptor agonist activity of a compound which may be used in the present invention may be determined by these assays.

Row | Structure (SMILES) | IC50 [µM] | Emax [%]
1 | CCC(C)C(=O)N1CCN(S(=O)(=O)c2ccccc2)CC1C(=O)NCc1ccc2ccccc2c1 (stereo not shown) [Example 10-1, 1-(2-methylbutanoyl)-N-(naphthalen-2-ylmethyl)-4-(phenylsulfonyl)piperazine-2-carboxamide] | 4.31 | 101
2 | CCC(=O)N1CCN(S(=O)(=O)c2ccccc2)CC1C(=O)NCc1ccc2ccccc2c1 (stereo not shown) [Example 10-2, N-(naphthalen-2-ylmethyl)-4-(phenylsulfonyl)-1-propionylpiperazine-2-carboxamide] | 8.9 | 97.4
3 | CCCC(=O)N1CCN(S(=O)(=O)c2ccccc2)CC1C(=O)NCc1ccc2ccccc2c1 (stereo not shown) [Example 10-3, 1-butyryl-N-(naphthalen-2-ylmethyl)-4-(phenylsulfonyl)piperazine-2-carboxamide] | 12.2 | 87.8
4 | CC(C)C(=O)N1CCN(S(=O)(=O)c2ccccc2)CC1C(=O)NCc1ccc2ccccc2c1 (stereo not shown) [Example 10-4, 1-isobutyryl-N-(naphthalen-2-ylmethyl)-4-(phenylsulfonyl)piperazine-2-carboxamide] | 2.61 | 98.7
5 | O=C(NCc1ccc2ccccc2c1)C1CN(S(=O)(=O)c2ccccc2)CCN1C(=O)C1CC1 (stereo not shown) [Example 10-5, 1-(cyclopropanecarbonyl)-N-(naphthalen-2-ylmethyl)-4-(phenylsulfonyl)piperazine-2-carboxamide] | 8.99 | 98.7
6 | O=C(NCc1ccc2ccccc2c1)C1CN(S(=O)(=O)c2ccccc2)CCN1C(=O)C1CCC1 (stereo not shown) [Example 10-6, 1-(cyclobutanecarbonyl)-N-(naphthalen-2-ylmethyl)-4-(phenylsulfonyl)piperazine-2-carboxamide] | 5 | 96.8
7 | O=C(NCc1ccc2ccccc2c1)C1CN(S(=O)(=O)c2ccccc2)CCN1C(=O)c1nccs1 (stereo not shown) [Example 10-7, N-(naphthalen-2-ylmethyl)-4-(phenylsulfonyl)-1-(thiazole-2-carbonyl)piperazine-2-carboxamide] | 1.87 | 98.9
8 | O=C(NCc1ccc2ccccc2c1)C1CN(S(=O)(=O)c2ccccc2)CCN1C(=O)c1ccsc1 (stereo not shown) [Example 10-8, N-(naphthalen-2-ylmethyl)-4-(phenylsulfonyl)-1-(thiophene-3-carbonyl)piperazine-2-carboxamide] | 4.67 | 90
9 | O=C(NCc1ccc2ccccc2c1)C1CN(S(=O)(=O)c2ccccc2)CCN1C(=O)c1ccco1 (stereo not shown) [Example 10-9, 1-(furan-2-carbonyl)-N-(naphthalen-2-ylmethyl)-4-(phenylsulfonyl)piperazine-2-carboxamide] | 6.17 | 93.8
10 | O=C(NCc1ccc2ccccc2c1)C1CN(S(=O)(=O)c2ccccc2)CCN1C(=O)c1cncs1 (stereo not shown) [Example 10-10, N-(naphthalen-2-ylmethyl)-4-(phenylsulfonyl)-1-(thiazole-5-carbonyl)piperazine-2-carboxamide] | 11.7 | 93.9
11 | Cc1ccccc1C(=O)N1CCN(S(=O)(=O)c2ccccc2)CC1C(=O)NCc1ccc2ccccc2c1 (stereo not shown) [Example 10-11, 1-(2-methylbenzoyl)-N-(naphthalen-2-ylmethyl)-4-(phenylsulfonyl)piperazine-2-carboxamide] | 100 | 19.4
12 | Cc1ccsc1C(=O)N1CCN(S(=O)(=O)c2ccccc2)CC1C(=O)NCc1ccc2ccccc2c1 (stereo not shown) [Example 10-12, 1-(3-methylthiophene-2-carbonyl)-N-(naphthalen-2-ylmethyl)-4-(phenylsulfonyl)piperazine-2-carboxamide] | 2.43 | 89.4
13 | CC(=O)N1CCN(S(=O)(=O)c2ccccc2)CC1C(=O)NCc1ccc2ccccc2c1 (stereo not shown) [Example 11, 1-acetyl-N-(naphthalen-2-ylmethyl)-4-(phenylsulfonyl)piperazine-2-carboxamide] | 34.7 | 81.6
14 | CC(C)C(=O)N1C(C(=O)NCc2ccc(-c3ccco3)cc2)CN(S(=O)(=O)c2ccccc2)CC1(C)C (stereo not shown) [Example 83, N-(4-(furan-2-yl)benzyl)-1-isobutyryl-6,6-dimethyl-4-(phenylsulfonyl)piperazine-2-carboxamide] | 0.0939 | 89.9

Continued, values first:

Row | IC50 [µM] | Emax [%] | Structure (SMILES)
15 | 1.01 | 20.6 | CC(C)C(=O)N1C(C)CN(S(=O)(=O)c2ccccc2)CC1C(=O)NCc1ccc(-c2cccnc2)cc1 (stereo not shown) [Example 42-2, 1-isobutyryl-6-methyl-4-(phenylsulfonyl)-N-(4-(pyridin-3-yl)benzyl)piperazine-2-carboxamide]
16 | 1.01 | 4.39 | CC(C)C(=O)N1C(C)CN(S(=O)(=O)c2ccccc2)CC1C(=O)NCc1ccc(-c2ccncc2)cc1 (stereo not shown) [Example 42-3, 1-isobutyryl-6-methyl-4-(phenylsulfonyl)-N-(4-(pyridin-4-yl)benzyl)piperazine-2-carboxamide]
17 | 5.72 | 60.1 | Cc1ccc(S(=O)(=O)N2CCN(C(=O)c3cccs3)C(C(=O)NCc3ccc4ccccc4c3)C2)cc1 (stereo not shown) [Example 89-1, N-(naphthalen-2-ylmethyl)-1-(thiophene-2-carbonyl)-4-tosylpiperazine-2-carboxamide]
18 | 2.67 | 92 | Cc1cccc(S(=O)(=O)N2CCN(C(=O)c3cccs3)C(C(=O)NCc3ccc4ccccc4c3)C2)c1 (stereo not shown) [Example 89-2, 4-[(3-methylphenyl)sulfonyl]-N-[(naphthalen-2-yl)methyl]-1-(thiophene-2-carbonyl)piperazine-2-carboxamide]
19 | 6.57 | 82.7 | Cc1ccccc1S(=O)(=O)N1CCN(C(=O)c2cccs2)C(C(=O)NCc2ccc3ccccc3c2)C1 (stereo not shown) [Example 89-3, 4-[(2-methylphenyl)sulfonyl]-N-[(naphthalen-2-yl)methyl]-1-(thiophene-2-carbonyl)piperazine-2-carboxamide]
20 | 5.28 | 75.5 | O=C(NCc1ccc2ccccc2c1)C1CN(S(=O)(=O)c2ccccc2Cl)CCN1C(=O)c1cccs1 (stereo not shown) [Example 89-4, 4-[(2-chlorophenyl)sulfonyl]-N-[(naphthalen-2-yl)methyl]-1-(thiophene-2-carbonyl)piperazine-2-carboxamide]
21 | 100 | 23.1 | N#Cc1ccc(S(=O)(=O)N2CCN(C(=O)c3cccs3)C(C(=O)NCc3ccc4ccccc4c3)C2)cc1 (stereo not shown) [Example 89-5, 4-[(4-cyanophenyl)sulfonyl]-N-[(naphthalen-2-yl)methyl]-1-(thiophene-2-carbonyl)piperazine-2-carboxamide]
22 | 6.09 | 67.5 | N#Cc1cccc(S(=O)(=O)N2CCN(C(=O)c3cccs3)C(C(=O)NCc3ccc4ccccc4c3)C2)c1 (stereo not shown) [Example 89-6, 4-[(3-cyanophenyl)sulfonyl]-N-[(naphthalen-2-yl)methyl]-1-(thiophene-2-carbonyl)piperazine-2-carboxamide]
23 | 2.6 | 99.7 | COc1ccc(S(=O)(=O)N2CCN(C(=O)c3cccs3)C(C(=O)NCc3ccc4ccccc4c3)C2)cc1 (stereo not shown) [Example 89-7, 4-[(4-methoxyphenyl)sulfonyl]-N-[(naphthalen-2-yl)methyl]-1-(thiophene-2-carbonyl)piperazine-2-carboxamide]
24 | 8.71 | 75.9 | COc1cccc(S(=O)(=O)N2CCN(C(=O)c3cccs3)C(C(=O)NCc3ccc4ccccc4c3)C2)c1 (stereo not shown) [Example 89-8, 4-[(3-methoxyphenyl)sulfonyl]-N-[(naphthalen-2-yl)methyl]-1-(thiophene-2-carbonyl)piperazine-2-carboxamide]
25 | 5.51 | 89.6 | O=C(NCc1ccc2ccccc2c1)C1CN(S(=O)(=O)c2ccc(F)cc2)CCN1C(=O)c1cccs1 (stereo not shown) [Example 89-9, 4-[(4-fluorophenyl)sulfonyl]-N-[(naphthalen-2-yl)methyl]-1-(thiophene-2-carbonyl)piperazine-2-carboxamide]
26 | 5.3 | 83.6 | O=C(NCc1ccc2ccccc2c1)C1CN(S(=O)(=O)c2cccc(F)c2)CCN1C(=O)c1cccs1 (stereo not shown) [Example 89-10, 4-[(3-fluorophenyl)sulfonyl]-N-[(naphthalen-2-yl)methyl]-1-(thiophene-2-carbonyl)piperazine-2-carboxamide]
